Reference: US10550144B2, “6-aryl-9-glycosylpurines and use thereof” (UNIVERZITA PALACKEHO V OLOMOUCI, priority 2014, dated 2020)
pIC50: −log10 of the molar value. Like-named read-outs stand apart in the source and are kept apart here.

Test system: skin fibroblasts BJ and keratinocytes HaCaT
Experiment: MTT in vitro cytotoxicity test on skin cells
Format: cell-based, human
Protocol: MTT assay is a standard test of toxicity based on photometric measurement of the ability of metabolically active cells to reduce MTT (3-(4,5-dimethylthiazol-2-yl)-2,5-diphenyltetrazolium bromide). Using the assay, the effects of 72 hour treatments with several concentrations of the compounds (sixfold dilution, maximal concentration=50 microM) on viability of skin fibroblasts BJ and keratinocytes HaCaT were evaluated. About 5,000 cells were seeded per well of a 96-well plate 24 hours before the treatment. DMSO vehiculum was used as a negative control. After 72 hour treatment, new medium with MTT (Sigma, M2128) was added to a final concentration of 0.5 mg/ml. After 3 hours, medium was removed and resulting formazan in the cells was dissolved in DMSO. The absorbance was measured at 570 nm (640 nm reference wavelength). The IC50 values were calculated from the dose-response curves. 6-Benzylaminopurine riboside and 6-furfurylaminopurine riboside were used as positive controls they were toxic in the MTT test.

Row | SMILES | toxicity in the MTT test (72 hour treatment) | toxicity in the MTT test | pIC50 (MTT, 72 hour treatment, maximal concentration 50 microM, BJ and HaCaT, table does not separate the cell lines)
1 | OC[C@H]1OC(n2cnc3c(NCc4ccco4)ncnc32)[C@H](O)[C@@H]1O (stereo partly drawn) [6-furfurylamino-9-ribosylpurine] | toxic |  | 
2 | OC[C@H]1OC(n2cnc3c(NCc4ccccc4)ncnc32)[C@H](O)[C@@H]1O (stereo partly drawn) [6-benzylaminopurin9-ribosylpurine] |  | toxic | ≥ 5.52
